Results as given in patent publication US20040002842A1, “Methods and systems for analyzing complex biological systems” (priority 2001, published 2004).

Legend:
[1] = system: Arabidopsis thaliana plants; assay: SOA1 gene expression analysis (60mer microarray, 6200 genes) of herbicide-treated tissue; conditions: SOA1 profiles
[2] = system: Saccharomyces cerevisiae wild type strain BY4743; assay: AF1 yeast metabolite analysis by GC-MS and LC-MS; type: cell-based; conditions: for # Compounds perturbed by treatment: 2×MIC, two hours
[3] = system: Saccharomyces cerevisiae wild type strain BY4743; assay: AF1 yeast gene expression analysis (microarray, KEGG pathway mapping); type: cell-based
Experimental: Saccharomyces cerevisiae wild type strain BY4743 was purchased from American Type Culture Center (ATCC, Manassas, Va.). The yeast strain was grown in YPD or SD media. H. […] The cultures started from fresh single colonies were grown in 1.0 ml YPD overnight at 30° C. […] The OD600 was adjusted to 1.0 with YPD media, then 2.0 ml of each was inoculated into three 250 ml flasks, each containing 50 ml of SD media. […] The cells were kept growing for another two hours, then collected by centrifugation at 4000 rpm for 5 minutes at 4° C. Pellets were washed once with ice-cold water, then were lyophilized overnight at 4° C. […] Tubes were vortexed for 30 seconds, then incubated for 10 minutes at room temperature (RT). […] Tubes were incubated for 10 minutes at RT. Samples were centrifuged for 20 minutes as before. Pellets were washed with 400 μl 70% ethanol and centrifuged for 10 minutes as before. The pellet was then dissolved in 100 μl nuclease-free water. RNA quality was determined using the Bioanalyzer 2100 and the RNA 6000 assay (Agilent Technologies, Palo Alto, Calif.) according to manufacturer's instructions. RNA concentrations were determined spectrophotometrically by measuring the absorption at 260 nm in an Ultrospec 2000 (Pharmacia Biotech, Piscataway, N.J.). […] Labeled cRNAs were evaluated using the RNA 6000 assay on the Agilent Bioanalyzer 2100. Labeled cRNA concentrations were determined spectrophotometrically by measuring the absorption at 260 nm in an Ultrospec 2000 (Pharmacia Biotech, Piscataway, N.J.). […] Each pair of samples to be hybridized were independently labeled and hybridized utilizing a fluor reversal for a total of two hybridizations per sample pair. The microarrays were scanned simultaneously in the Cy3 and Cy5 channels with Agilent's 48-slide, Dual Laser DNA Microarray Scanner (Agilent Technologies, Palo Alto, Calif.) at 10 μm resolution using default settings. Image Analysis Software (Version A.4.0.45, Agilent Technologies, Palo Alto, Calif.) was used for image analysis. Each feature was determined from an array's associated pattern file and a detection algorithm. Intensity values for each feature were determined after subtracting background derived from an average of negative control features. Features with unusual pixel intensity statistics (e.g., high non-uniformity, saturation in either channel, and the like) were excluded from downstream analyses. Data was loaded into the Rosetta RESOLVER database (Rosetta Inpharmatics Inc., Kirkland, Wash.) for storage and analysis. Data was evaluated after combining results from fluor reversal replicate hybridizations. The annotation of yeast ORFs was obtained from Proteome BIOKNOWLEDGE Library (Incyte Genomics, Palo Alto, Calif.). In AF1, two different technologies were utilized: gene expression analysis (for examination of mRNA expression) and metabolite analysis. […] As noted previously, existing metabolic databases may be helpful in practicing the methods and systems of the present invention, but many databases include limitations that make their use in data analysis and pathway mapping less than straightforward. […] This caveat to KEGG makes it difficult to pinpoint the correct pathway when attempting to link a gene to a specific pathway. The pathway score indicates how meaningful the mapping is, or how likely it is to be correctly indicative of the pathway involved in the perturbation under examination. The method provides a pathway score based on perturbation levels of genes and/or compounds and the information content of each gene and/or compound in the pathway, i.e., a pathway score indicates the extent to which other pathways are mapped to a gene/compound. For example, imagine that two genes are perturbed in a particular experiment.

[4] = system: Saccharomyces cerevisiae wild type strain BY4743; assay: AF1 combined gene expression and metabolite data (reactions, pathways, cluster analysis); type: cell-based
Description: The data were then combined to determine the number of reactions showing an enzyme and at least one compound perturbed, and to determine the number of pathways having at least one enzyme and one perturbed compound perturbed. The results of the analysis are represented in Tables 16 and 17, and were difficult to interpret, illustrating that the ability to draw conclusions from compound mapping to pathways is limited when absent additional data. […] A coherent data set was created from data obtained from the four above-described drug compounds. The data were reduced by using principle components analysis and cluster analysis.

## CCc1cccc(C)c1N(C(=O)CCl)C(C)COC (stereo not shown) [Metolachlor]
[1]
  gene expression profile correlation with bifenox (r): 0.499
  gene expression profile correlation with diquat (r): 0.569

## CC[C@@H]([C@H](C)O)n1ncn(-c2ccc(N3CCN(c4ccc(OC[C@@H]5CO[C@@](Cn6cncn6)(c6ccc(F)cc6F)C5)cc4)CC3)cc2)c1=O [Posaconazole]
[2]; P < 0.05
  # Compounds perturbed by treatment: 3
[2]; P < 0.1
  # Compounds perturbed by treatment: 4
[2]; Platform GC
  Fold Change: alanine: 1.035
  Fold Change: asparagine: 0.145
  Fold Change: aspartic acid: −0.071
  Fold Change: campesterol: 0
  Fold Change: desmosterol: 0
  Fold Change: disaccaride1: 0.04733
  Fold Change: disaccaride2: 0.313
  Fold Change: disaccaride3: 0.3407
  Fold Change: ergosterol: 0.808
  Fold Change: fucosterol: 6.722
  Fold Change: glutamine: 0.6439
  Fold Change: glycanopyrose: 1.594
  Fold Change: glycerol: 0.1873
  Fold Change: glycine: 0.08267
  Fold Change: hexadecanoic acid: −0.01867
  Fold Change: iso citric acid: 0.4
  Fold Change: isoleucine: 0.1023
  Fold Change: lanosterol: 7.464
  Fold Change: leucine: 0.334
  Fold Change: lysine: 0.1586
  Fold Change: malic acid: 0.2942
[2]; Platform nLC
  Fold Change: 2-ketobutyric acid: −0.9992
  Fold Change: 2-ketoglutaric: 11.33
  Fold Change: 3-indolylacetonitri: −0.9998
  Fold Change: 4-methylcatechol: 0
  Fold Change: 4aminobutyrate/dimg: −0.008939
  Fold Change: 5hydroxyLtryptophan: 0
  Fold Change: 6-benzylaminopurine: 0
  Fold Change: DLaminoadipic acid: −0.9935
  Fold Change: abscisic acid: 0
  Fold Change: aconitic acid: 1.874
  Fold Change: adenine: 0
  Fold Change: adenosine: 128.3
  Fold Change: alanine: 0.1091
  Fold Change: allantoic acid: 0.3321
  Fold Change: allantoin: 5.97
  Fold Change: anthranilic acid: 0
  Fold Change: arginine: 0.1707
  Fold Change: argininosuccinate: 318.3
  Fold Change: asparagine: 0.006865
  Fold Change: aspartic: 0.305
  Fold Change: benzoic acid: 0
  Fold Change: biotin: −0.9992
  Fold Change: caffeic acid: −0.49
  Fold Change: catechol: 0
  Fold Change: cinnamic acid: 0
  Fold Change: citricanoic/itaconi: 0
  Fold Change: citrulline: 1160
  Fold Change: coumaric acid: 0
  Fold Change: cytidine: −0.9986
  Fold Change: cytosine: 0
  Fold Change: decanoic acid: 0.1263
  Fold Change: diaminopimelic acid: 0
  Fold Change: dihydrofolic acid: 0
  Fold Change: estrone: 0
  Fold Change: farnesol: 0
  Fold Change: folic acid: 0
  Fold Change: fumaric/3m2oxobutan: −0.9997
  Fold Change: gallic acid: 0.4414
  Fold Change: gibberellic: 0
  Fold Change: glucosamine6PO4: −0.9951
  Fold Change: glutamic/acetylseri: 0.3222
  Fold Change: glutamine/lysine: 0.09814
  Fold Change: guanine: 0
  Fold Change: guanosine: −0.993
  Fold Change: histidine: 0
  Fold Change: homogentisic/uric: 0
  Fold Change: hydrocortisone: 0
  Fold Change: hypoxanthine: 0.1751
  Fold Change: indole3pyruvic acid: 0
  Fold Change: inostol/glucos/sorb: −0.493
  Fold Change: isocitric/citric/qu: 1.711
  Fold Change: jasmonic acid: 0
  Fold Change: kinetin: 0
  Fold Change: lactic acid: 0.5987
  Fold Change: lauric acid: 0.9833
  Fold Change: leucine/isoleucine/: 0.03158
  Fold Change: luteolin: 0
  Fold Change: malic acid: 0.3101
  Fold Change: malonic acid: 0
  Fold Change: menthol*: 0.08121
  Fold Change: methionine: 0
[2]; Platform pLC
  Fold Change: 4-aminobenzoic acid: 0
  Fold Change: 4-methylcatechol: 0
  Fold Change: 4ambutyrate/dimglyc: 31.37
  Fold Change: 5hydroxyLtryptophan: 0
  Fold Change: 6benzylaminopurine: 0
  Fold Change: DL-aminoadipic acid: 1.685
  Fold Change: abscisic acid: 0
  Fold Change: adenine: −0.0145
  Fold Change: adenosine: 0
  Fold Change: alanine/sarcosine: 0.1013
  Fold Change: allantoic acid: 0
  Fold Change: anthranilic acid: 0
  Fold Change: arginine: 0.03383
  Fold Change: argininosuccinate: 0
  Fold Change: asparagine: 0.4302
  Fold Change: aspartic acid: 0.3626
  Fold Change: biotin: 0
  Fold Change: caffeine: 0
  Fold Change: citric acid TME: 0
  Fold Change: citrulline: 0.1011
  Fold Change: cytidine: 0
  Fold Change: cytosine: 1135
  Fold Change: diaminopimelic acid: 0
  Fold Change: dihydrofolic acid: 0
  Fold Change: dipicolinic acid: 0
  Fold Change: folic acid: 0
  Fold Change: glucosamine: 0
  Fold Change: glucosamine6PO4: 0
  Fold Change: glutamate: 0.3769
  Fold Change: glutamine/lysine: 0.303
  Fold Change: glutathione: 0.0101
  Fold Change: guanosine: 0.04655
  Fold Change: histidine: 0
  Fold Change: hydrocortisone: 0
  Fold Change: hypoxanthine: 0.135
  Fold Change: itaconic acid dimes: 0
  Fold Change: kinetin: 0
  Fold Change: leucine/isoleucine/: 0.04937
  Fold Change: luteolin: 0
  Fold Change: mannitol: 0.3919
  Fold Change: methionine: −0.3997
[3]; P < 0.05, 2×MIC, two hours
  # Transcripts perturbed by treatment: 690
[3]; p < 0.05, KEGG mapping
  Number of Pathways Affected by at Least One Gene, # Pathways: 69
[4]
  Number of Reactions Having an Enzyme and at Least One Compound Perturbed, # Reactions: 0
